According to PubChem BioAssay AID292 (DTP/NCI, 2004):
Several values for one entry are separate records, joined by “and”; a condition that tells them apart may be missing. Equal values may be shown once. Toxic doses and inconclusive results are not listed.

System: B6C3F1 mice, ip Sarcoma M5076, median survival T/C
Assay: NCI In Vivo Anticancer Drug Screen. Data for tumor model Sarcoma M5076 (intraperitoneal) in B6C3F1 mice
Conditions: endpoint: median survival time, higher = longer survival
In short: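 Mice carrying the transplanted tumour received compound treatment. Survival was recorded, and each value is the treated-group measurement divided by that of the vehicle-dosed control group.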

[1] = dose: 25.0 mg/kg/injection, schedule: Q04DX004 (ip), vehicle: saline with Tween-80
[2] = dose: 50.0 mg/kg/injection, schedule: Q04DX004 (ip), vehicle: saline with Tween-80
[3] = dose: 100.0 mg/kg/injection, schedule: Q04DX004 (ip), vehicle: saline with Tween-80
[4] = dose: 200.0 mg/kg/injection, schedule: Q04DX004 (ip), vehicle: saline with Tween-80
[5] = dose: 25.0 mg/kg/injection, schedule: Q04DX004 (ip), vehicle: Klucel (hydroxypropylcellulose) (HPC)
[6] = dose: 50.0 mg/kg/injection, schedule: Q04DX004 (ip), vehicle: Klucel (hydroxypropylcellulose) (HPC)
[7] = dose: 400.0 mg/kg/injection, schedule: Q04DX004 (ip), vehicle: Klucel (hydroxypropylcellulose) (HPC)
[8] = dose: 100.0 mg/kg/injection, schedule: Q04DX004 (ip), vehicle: Klucel (hydroxypropylcellulose) (HPC)
[9] = dose: 200.0 mg/kg/injection, schedule: Q04DX004 (ip), vehicle: Klucel (hydroxypropylcellulose) (HPC)
[10] = dose: 50.0 mg/kg/injection, schedule: Q04DX004 (ip), vehicle: suspension in saline
[11] = dose: 100.0 mg/kg/injection, schedule: Q04DX004 (ip), vehicle: suspension in saline
[12] = dose: 200.0 mg/kg/injection, schedule: Q04DX004 (ip), vehicle: suspension in saline
[13] = dose: 400.0 mg/kg/injection, schedule: Q04DX004 (ip), vehicle: suspension in saline
[14] = dose: 75.0 mg/kg/injection, schedule: Q04DX004 (ip), vehicle: saline
[15] = dose: 150.0 mg/kg/injection, schedule: Q04DX004 (ip), vehicle: saline
[16] = dose: 300.0 mg/kg/injection, schedule: Q04DX004 (ip), vehicle: saline
[17] = dose: 600.0 mg/kg/injection, schedule: Q04DX004 (ip), vehicle: saline with Tween-80
[18] = dose: 600.0 mg/kg/injection, schedule: Q04DX004 (ip), vehicle: saline
[19] = dose: 400.0 mg/kg/injection, schedule: Q04DX004 (ip), vehicle: saline with Tween-80

With O=C(Oc1ccccc1)c1cc(O)c(O)c(O)c1 the T/C [1] was 97 % of control, the T/C [2] was 93 % of control and the T/C [3] was 92 % of control. For the same compound, the T/C [4] was 88 % of control.

With COc1ccc(CCN2C(=O)C(=O)N(C)C2=O)cc1OC the T/C [5] was 89 % of control, the T/C [6] was 99 % of control and the T/C [7] was 92 % of control.

In the case of Nc1ccc2ccc(N)cc2c1, the T/C [1] is reported as 93 % of control, the T/C [2] is reported as 96 % of control and the T/C [3] is reported as 89 % of control. The T/C [4] was 93 % of control.

With COC(=O)c1ccc(N=NN(C)COC(C)=O)cc1 the T/C (dose: 30.0 mg/kg/injection, schedule: Q04DX004 (ip), vehicle: Klucel (hydroxypropylcellulose) (HPC)) was 123 % of control, the T/C (dose: 60.0 mg/kg/injection, schedule: Q04DX004 (ip), vehicle: Klucel (hydroxypropylcellulose) (HPC)) was 123 % of control and the T/C (dose: 103.7 mg/kg/injection, schedule: Q04DX004 (ip), vehicle: Klucel (hydroxypropylcellulose) (HPC)) was 175 % of control. For the same compound, the T/C (dose: 172.8 mg/kg/injection, schedule: Q04DX004 (ip), vehicle: Klucel (hydroxypropylcellulose) (HPC)) was 188 % of control, the T/C (dose: 288.0 mg/kg/injection, schedule: Q04DX004 (ip), vehicle: Klucel (hydroxypropylcellulose) (HPC)) was 195 % of control and the T/C (dose: 480.0 mg/kg/injection, schedule: Q04DX004 (ip), vehicle: Klucel (hydroxypropylcellulose) (HPC)) was 167 % of control.

CCCCCNc1ncnc2c(C)[nH]nc12 was tested, and the T/C [5] was 105 % of control, the T/C [6] was 97 % of control and the T/C [8] was 103 % of control. The T/C [9] was 88 % of control.

In the case of CN1COc2c(n(C)c(=O)[nH]c2=O)C1, the T/C [10] is reported as 106 % of control, the T/C [11] is reported as 106 % of control and the T/C [12] is reported as 105 % of control. The T/C [13] was 106 % of control and the T/C (dose: 800.0 mg/kg/injection, schedule: Q04DX004 (ip), vehicle: suspension in saline) was 114 % of control.

For O=C(NNC(=S)NC1OC(CO)C(O)C(O)C1O)c1cccc(C(=O)NNC(=S)NC2OC(CO)C(O)C(O)C2O)n1 (centres undefined), the T/C (dose: 37.5 mg/kg/injection, schedule: Q04DX004 (ip), vehicle: saline with Tween-80) was 97 % of control, the T/C (dose: 37.5 mg/kg/injection, schedule: Q04DX004 (ip), vehicle: saline) was 101 % of control and the T/C (dose: 75.0 mg/kg/injection, schedule: Q04DX004 (ip), vehicle: saline with Tween-80) was 98 % of control. The T/C [14] was 96 % of control, the T/C (dose: 150.0 mg/kg/injection, schedule: Q04DX004 (ip), vehicle: saline with Tween-80) was 98 % of control and the T/C [15] was 101 % of control. For the same compound, the T/C (dose: 300.0 mg/kg/injection, schedule: Q04DX004 (ip), vehicle: saline with Tween-80) was 99 % of control, the T/C [16] was 96 % of control and the T/C [17] was 98 % of control. The T/C [18] was 103 % of control.

For NC(Cn1ccc(=O)c(O)c1)C(=O)O (centres undefined), the T/C [14] was 100 % of control, the T/C [15] was 109 % of control and the T/C [16] was 103 % of control. For the same compound, the T/C [18] was 118 % of control and the T/C (dose: 1200.0 mg/kg/injection, schedule: Q04DX004 (ip), vehicle: saline) was 113 % of control.

With Clc1ccccc1C(Cc1c(Cl)cccc1Cl)Cn1ccnc1 (centres undefined) the T/C (dose: 12.5 mg/kg/injection, schedule: Q04DX004 (ip), vehicle: saline with Tween-80) was 100 % of control, the T/C [1] was 101 % of control and the T/C [2] was 101 % of control. For the same compound, the T/C [3] was 93 % of control.

For Cc1[nH]c(=O)[nH]c(=O)c1C=O, the T/C [2] was 100 % of control, the T/C [3] was 101 % of control and the T/C [4] was 98 % of control. The T/C [19] was 96 % of control.

With COC(=O)Nc1ccc(Cc2ccc(NC(=O)OC)cc2)cc1 the T/C [2] was 95 % of control, the T/C [3] was 93 % of control and 94 % of control and the T/C [4] was 103 % of control and 119 % of control. For the same compound, the T/C [19] was 153 % of control and the T/C [17] was 160 % of control.

CC(=O)OC1C(O)C(C)OC(OC2C(OC(=O)C3CCC4C(C3)OC3(CC(OC(=O)/C=C/c5ccccc5)C(C)CO3)C43CO3)OC(C)C(O)C2OC(C)=O)C1O (centres undefined) was tested, and the T/C (dose: 1.0 mg/kg/injection, schedule: Q01DX009 (ip), vehicle: saline + alcohol) was 100 % of control, the T/C (dose: 1.0 mg/kg/injection, schedule: Q04DX004 (ip), vehicle: saline + alcohol) was 107 % of control and the T/C (dose: 2.0 mg/kg/injection, schedule: Q01DX009 (ip), vehicle: saline + alcohol) was 105 % of control. The T/C (dose: 2.0 mg/kg/injection, schedule: Q04DX004 (ip), vehicle: saline + alcohol) was 112 % of control, the T/C (dose: 4.0 mg/kg/injection, schedule: Q01DX009 (ip), vehicle: saline + alcohol) was 113 % of control and the T/C (dose: 4.0 mg/kg/injection, schedule: Q04DX004 (ip), vehicle: saline + alcohol) was 116 % of control. For the same compound, the T/C (dose: 8.0 mg/kg/injection, schedule: Q01DX009 (ip), vehicle: saline + alcohol) was 121 % of control, the T/C (dose: 12.96 mg/kg/injection, schedule: Q04DX004 (ip), vehicle: saline + alcohol) was 123 % of control and the T/C (dose: 21.6 mg/kg/injection, schedule: Q04DX004 (ip), vehicle: saline + alcohol) was 115 % of control. For the same compound, the T/C (dose: 36.0 mg/kg/injection, schedule: Q04DX004 (ip), vehicle: saline + alcohol) was 157 % of control, the T/C (dose: 60.0 mg/kg/injection, schedule: Q04DX004 (ip), vehicle: saline + alcohol) was 116 % of control and the T/C (dose: 100.0 mg/kg/injection, schedule: Q04DX004 (ip), vehicle: saline + alcohol) was 115 % of control.

In the case of O=C1C(=O)N(c2cccc(Cl)c2)C(=O)N1Cc1ccccc1, the T/C (dose: 43.75 mg/kg/injection, schedule: Q04DX004 (ip), vehicle: Klucel (hydroxypropylcellulose) (HPC)) is reported as 102 % of control, the T/C (dose: 87.5 mg/kg/injection, schedule: Q04DX004 (ip), vehicle: Klucel (hydroxypropylcellulose) (HPC)) is reported as 97 % of control and the T/C (dose: 175.0 mg/kg/injection, schedule: Q04DX004 (ip), vehicle: Klucel (hydroxypropylcellulose) (HPC)) is reported as 92 % of control. The T/C (dose: 350.0 mg/kg/injection, schedule: Q04DX004 (ip), vehicle: Klucel (hydroxypropylcellulose) (HPC)) was 94 % of control and the T/C (dose: 700.0 mg/kg/injection, schedule: Q04DX004 (ip), vehicle: Klucel (hydroxypropylcellulose) (HPC)) was 88 % of control.

CC(=O)C(Cl)C(=O)c1c(C)[nH]n(-c2ccccc2)c1=O (centres undefined) was tested, and the T/C [6] was 99 % of control, the T/C [8] was 113 % of control and the T/C [9] was 92 % of control.

For CCOc1ccc(C(C)c2cc3c(cc2OC)OCO3)cc1 (centres undefined), the T/C (dose: 62.5 mg/kg/injection, schedule: Q04DX004 (ip), vehicle: distilled water + Tween-80) was 99 % of control and 102 % of control, the T/C (dose: 125.0 mg/kg/injection, schedule: Q04DX004 (ip), vehicle: distilled water + Tween-80) was 102 % of control and 124 % of control and the T/C (dose: 250.0 mg/kg/injection, schedule: Q04DX004 (ip), vehicle: distilled water + Tween-80) was 117 % of control.

For CC(=O)NCCSSCc1ccccc1CS(=O)O, the T/C (dose: 25.0 mg/kg/injection, schedule: Q04DX004 (ip), vehicle: suspension in saline) was 96 % of control, the T/C [10] was 100 % of control and the T/C [11] was 100 % of control. For the same compound, the T/C [12] was 101 % of control and the T/C [13] was 99 % of control.

For O=S1(=O)C(c2cccc(F)c2)=C(O)c2cc3ccccc3nc21, the T/C (dose: 26.57 mg/kg/injection, schedule: Q04DX004 (ip), vehicle: saline with Tween-80) was 100 % of control, the T/C (dose: 53.13 mg/kg/injection, schedule: Q04DX004 (ip), vehicle: saline with Tween-80) was 92 % of control and the T/C (dose: 106.25 mg/kg/injection, schedule: Q04DX004 (ip), vehicle: saline with Tween-80) was 96 % of control. For the same compound, the T/C (dose: 212.5 mg/kg/injection, schedule: Q04DX004 (ip), vehicle: saline with Tween-80) was 92 % of control.

For CCCCCn1c(C)cc(/C=C\c2ccc3cc(C)ccc3[n+]2C)c1C, the T/C (dose: 1.0 mg/kg/injection, schedule: Q04DX004 (ip), vehicle: saline) was 103 % of control, the T/C (dose: 2.0 mg/kg/injection, schedule: Q04DX004 (ip), vehicle: saline) was 111 % of control and the T/C (dose: 4.0 mg/kg/injection, schedule: Q04DX004 (ip), vehicle: saline) was 111 % of control. For the same compound, the T/C (dose: 8.0 mg/kg/injection, schedule: Q04DX004 (ip), vehicle: saline) was 114 % of control.

With N#CC1C(=O)NC(=S)NC1c1ccccc1 (centres undefined) the T/C [6] was 97 % of control, the T/C [8] was 101 % of control and the T/C [9] was 97 % of control. The T/C [7] was 100 % of control.
